Assay results as given in US5098931A, “7-substituted HMG-CoA reductase inhibitors” (Merck & Co., Inc., priority 1990, dated 1992).

The molecules below were run against T1, HMG-CoA reductase (Rattus norvegicus, UniProt P51639) (assay: intrinsic HMG-CoA reductase inhibition, published in vitro protocol (J. Med. Chem., 28, p. 347-358 (1985))). Settings: IC50 of test compound compared with that of compactin (mevastatin) determined simultaneously; compactin assigned a value of 100.
T1 sequence (P51639 1-887): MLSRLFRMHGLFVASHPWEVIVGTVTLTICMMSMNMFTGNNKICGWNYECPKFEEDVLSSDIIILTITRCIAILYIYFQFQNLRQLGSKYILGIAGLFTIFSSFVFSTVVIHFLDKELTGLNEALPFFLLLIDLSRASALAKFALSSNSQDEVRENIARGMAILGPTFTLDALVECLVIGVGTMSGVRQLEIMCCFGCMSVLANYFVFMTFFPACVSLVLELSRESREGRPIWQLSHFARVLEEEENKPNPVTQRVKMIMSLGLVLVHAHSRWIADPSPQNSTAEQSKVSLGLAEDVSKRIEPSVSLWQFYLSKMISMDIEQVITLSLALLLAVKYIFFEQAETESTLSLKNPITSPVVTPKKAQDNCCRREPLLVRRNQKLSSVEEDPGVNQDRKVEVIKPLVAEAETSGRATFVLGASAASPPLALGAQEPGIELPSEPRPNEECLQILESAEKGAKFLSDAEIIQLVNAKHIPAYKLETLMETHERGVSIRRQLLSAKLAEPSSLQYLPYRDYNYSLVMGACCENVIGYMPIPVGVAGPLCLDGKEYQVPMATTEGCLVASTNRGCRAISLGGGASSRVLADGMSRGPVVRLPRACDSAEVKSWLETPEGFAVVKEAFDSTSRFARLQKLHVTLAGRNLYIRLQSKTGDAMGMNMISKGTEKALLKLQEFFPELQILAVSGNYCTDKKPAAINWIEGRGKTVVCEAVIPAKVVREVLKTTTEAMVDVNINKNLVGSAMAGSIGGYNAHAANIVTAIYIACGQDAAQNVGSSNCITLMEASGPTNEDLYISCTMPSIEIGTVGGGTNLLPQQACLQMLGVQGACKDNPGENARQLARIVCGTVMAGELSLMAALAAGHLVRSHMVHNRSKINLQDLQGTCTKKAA
Assay type: biochemical
Procedure: The intrinsic HMG-CoA reductase inhibition activity of the claimed compounds is measured in the in vitro protocol published in J. Med. Chem., 28, p. 347-358 (1985). […] Representative of the intrinsic HMG-CoA reductase inhibitory activities of the claimed compounds are the following relative potencies for compounds of formula (I).

SMILES | Relative Potency (Compactin = 100)
CCC(C)(C)C(=O)O[C@@H]1[C@H]2C(=C[C@H](C)[C@H]1[C@H](O)c1ccccc1)C=C[C@H](C)[C@@H]2CC[C@@H]1C[C@@H](O)CC(=O)O1 [6R-[2-[8(R)-(2,2-dimethylbutyryloxy)-2(S)-methyl-6(S)-methyl-7(S)-(1(S)-hydroxybenzyl)-1,2,6,7,8,8a(R)-hexahydronaphthyl-1(S)]-ethyl]-4(R)-hydroxy-3,4,5,6-tetrahydro-2H-pyran-2-one] | 137
CCC(C)(C)C(=O)O[C@H]1[C@H](CO)[C@@H](C)C=C2C=C[C@H](C)[C@H](CC[C@@H]3C[C@@H](O)CC(=O)O3)[C@H]21 [6(R)-[2-[8(R)-(2,2-dimethylbutyryloxy)-2(S)-methyl-6(S)-methyl-7(S)-hydroxymethyl-1,2,6,7,8,8a(R)-hexahydronaphthyl-1(S)]ethyl]-4(R)-hydroxy-3,4,5,6-tetrahydro-2H-pyran-2-one] | 262
CCC(C)(C)C(=O)O[C@@H]1[C@H]2C(=C[C@H](C)[C@H]1[C@@H](C)O)C=C[C@H](C)[C@@H]2CC[C@@H]1C[C@@H](O)CC(=O)O1 [6R-[2-[8(R)-(2,2-dimethylbutyryloxy)-2(S)-methyl-6(S)-methyl-7(S)-(1(R)-hydroxyethyl)-1,2,6,7,8,8a(R)-hexahydronaphthyl-1(S)]ethyl]-4(R)-hydroxy-3,4,5,6-tetrahydro-2H-pyran-2-one] | 124
CCC(C)(C)C(=O)O[C@H]1[C@@H](O)[C@@H](C)C=C2C=C[C@H](C)[C@H](CC[C@@H]3C[C@@H](O)CC(=O)O3)[C@H]21 [6(R)-[2-[8(R)-(2,2-dimethylbutyryloxy)-2(S)-methyl-6(S)-methyl-7(S)-hydroxy-1,2,6,7,8,8a(R)-hexahydronaphthyl-1(S)]ethyl]-4(R)-hydroxy-3,4,5,6-tetrahydro-2H-pyran-2-one] | 214
CCC(C)(C)C(=O)O[C@H]1[C@H](C)[C@@H](C)C=C2C=C[C@H](C)[C@H](CC[C@@H]3C[C@@H](O)CC(=O)O3)[C@H]21 [6(R)-[2-[8(R)-(2,2-dimethylbutyryloxy)-2(S)-methyl-6(S)-methyl-7(R)-methyl-1,2,6,7,8,8a(R)-hexahydronaphthyl-1(S)]ethyl]-4(R)-hydroxy-3,4,5,6-tetrahydro-2H-pyran-2-one] | 174
CCC(C)(C)C(=O)O[C@@H]1[C@H]2C(=C[C@H](C)[C@H]1[C@H](C)O)C=C[C@H](C)[C@@H]2CC[C@@H]1C[C@@H](O)CC(=O)O1 [6R-[2-[8(R)-(2,2-dimethylbutyryloxy)-2(S)-methyl-6(S)-methyl-7(S)-(1(S)-hydroxyethyl)-1,2,6,7,8,8a(R)-hexahydronaphthyl-1(S)]ethyl]-4(R)-hydroxy-3,4,5,6-tetrahydro-2H-pyran-2-one] | 350
